Laboratory results published in patent US11498939B2, “Glucose polymers for peritoneal dialysis” (ROQUETTE FRERES, priority 2016, dated 2022).

Experiment: Effects of the sterilization on GDP production
Format: physicochemical
Settings: 4% solution in deionized water; sterilization at 121° C. for 15 minutes
Description: In this example, the inventors studied the influence of sterilization on the production of GDPs, namely 5-hydroxymethyl furaldehyde (5-HMF), furaldehyde and 3,4-dideoxyglucosone-3-ene (3,4-DGE), of solutions using various glucose polymers or glucose.
20 ml solutions containing 4% of each of the substances to be tested were prepared in deionized water. The GDP content was measured after sterilization at 121° C. for 15 minutes.
The 5-HMF and furaldehyde content was determined by liquid chromatography using 5-HMF standards (Merck—Ref. 8.206.78.001) or furaldehyde standards for the calibration respectively), and detection by UV spectrophotometry at 280 nm. For the chromatography, a column with a particle size of 9 μm, 8% crosslinking, an internal diameter of 7.8 mm and a length of 300 mm (HPX 87H column—Biorad—Ref. 125.0140) was used. The conditions were the following: eluent 5 mN H2SO4 […], flow rate of 0.8 ml/min.
The 3,4-DGE content was determined by liquid chromatography (using pyrazinecarboxamide (Sigma—Ref. P7136) for the calibration) and detection by UV spectrophotometry at 230 nm. For the chromatography, a column with a particle size of 5 μm, a pore size of 120 Å size, an internal diameter of 4.6 mm and a length of 15 cm (Supelcosil LC-18—Supelco—Ref. 58230) was used. The conditions were the following: elution solvent H2O/MeOH, flow rate of 1.0 ml/min.

OC[C@H]1OC(O)[C@H](O)[C@@H](O)[C@@H]1O (stereo partly shown) [glucose, anhydrous dextrose]
GDP content after sterilization (5-HMF, furaldehyde, 3,4-DGE): much higher than that of the glucose polymers
